Measured values reported in patent US6809065B2, “Herbicide containing substituted pyrazole derivative as active ingredient” (SDS Biotech K.K., priority 2001, dated 2004).

Legend:
[1] = system: rice (Oryza sative, variety: Koshihikari); test: Paddy field treatment (Test Example 3), crop; format: in vivo, Oryza sativa; settings: transplanted rice two-leaf period, water surface treatment 10th day after transplantation, 1 kg active ingredient per hectare, evaluated 21st day, lower index = higher safety
In short: (§1)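 Pot test, flooded paddy soil (4 cm water); weeds sown, 2-leaf rice (Koshihikari) transplanted. Day 10 post-transplant: WP dropped on water, 1 kg a.i./ha. Score index at 21 d after application; higher = stronger herbicidal effect.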

Monochoria vaginalis = test: Paddy field treatment (Test Example 3); format: in vivo; settings: paddy pot, submerged 4 cm, dropped on water surface 10th day after transplantation, 1 kg active ingredient per hectare, evaluated 21st day
In short: as §1

Ammannia multiflora = test: Paddy field treatment (Test Example 3); format: in vivo; settings: paddy pot, submerged 4 cm, dropped on water surface 10th day after transplantation, 1 kg active ingredient per hectare, evaluated 21st day
In short: as §1

Scirpus juncoides = test: Paddy field treatment (Test Example 3); format: in vivo; settings: paddy pot, submerged 4 cm, dropped on water surface 10th day after transplantation, 1 kg active ingredient per hectare, evaluated 21st day
In short: as §1

Chenopodium album [2] = test: Upland soil treatment (Test Example 2); format: in vivo; settings: soil surface treatment next day after sowing, wettable powder, 1 kg active ingredient per hectare, evaluated 21st day after application
In short: (§2)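 Index rating at day 21 after a single pre-emergence soil-surface application, 1 kg a.i./ha, made the day after sowing in upland soil; for crops a lower index indicates higher safety.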

Stellaria media [3] = test: Upland soil treatment (Test Example 2); format: in vivo; settings: soil surface treatment next day after sowing, wettable powder, 1 kg active ingredient per hectare, evaluated 21st day after application
In short: as §2

Digitaria adscendens [4] = test: Upland soil treatment (Test Example 2); format: in vivo; settings: soil surface treatment next day after sowing, wettable powder, 1 kg active ingredient per hectare, evaluated 21st day after application
In short: as §2

Setaria viridis [5] = test: Upland soil treatment (Test Example 2); format: in vivo; settings: soil surface treatment next day after sowing, wettable powder, 1 kg active ingredient per hectare, evaluated 21st day after application
In short: as §2

soybean (Glycine max) [6] = test: Upland field foliage treatment (Test Example 1), crop; format: in vivo; settings: foliage treatment 14th day after sowing, 1 kg active ingredient per hectare, evaluated 21st day, lower index = higher safety
In short: (§3)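 Read-out is a visual index scored 21 days after treatment. Higher values mean more herbicidal effect on weeds and lower values mean better crop safety. Plants were raised from seed in upland soil and received a leaf-surface spray of 1 kg active ingredient per hectare at 14 days.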

[7] = system: wheat (Triticum aestivum); test: as above; format: in vivo; settings: foliage treatment 14th day after sowing, 1 kg active ingredient per hectare, evaluated 21st day, lower index = higher safety
In short: as §3

Chenopodium album [8] = test: Upland field foliage treatment (Test Example 1); format: in vivo; settings: foliage treatment 14th day after sowing, wettable powder, 1 kg active ingredient per hectare, evaluated 21st day after application
In short: as §3

Stellaria media [9] = test: Upland field foliage treatment (Test Example 1); format: in vivo; settings: foliage treatment 14th day after sowing, wettable powder, 1 kg active ingredient per hectare, evaluated 21st day after application
In short: as §3

Digitaria adscendens [10] = test: Upland field foliage treatment (Test Example 1); format: in vivo; settings: foliage treatment 14th day after sowing, wettable powder, 1 kg active ingredient per hectare, evaluated 21st day after application
In short: as §3

Setaria viridis [11] = test: Upland field foliage treatment (Test Example 1); format: in vivo; settings: foliage treatment 14th day after sowing, wettable powder, 1 kg active ingredient per hectare, evaluated 21st day after application
In short: as §3

Echinochloa spp. = test: Paddy field treatment (Test Example 3); format: in vivo, Echinochloa crusgalli; settings: paddy pot, submerged 4 cm, dropped on water surface 10th day after transplantation, 1 kg active ingredient per hectare, evaluated 21st day
In short: as §1

soybean (Glycine max) [12] = test: Upland soil treatment (Test Example 2), crop; format: in vivo; settings: soil surface treatment next day after sowing, 1 kg active ingredient per hectare, evaluated 21st day, lower index = higher safety
In short: as §2

[13] = system: wheat (Triticum aestivum); test: Upland soil treatment (Test Example 2), crop; format: in vivo; settings: soil surface treatment next day after sowing, 1 kg active ingredient per hectare, evaluated 21st day, lower index = higher safety
In short: as §2

COC=C(Cn1ccc(-c2ccccc2)n1)C(=O)OC [Compound 1]
Herbicidal activity Oryza sativa [1]: 1 (herbicidal effect of not less than 10% by weight and less than 30% by weight) | Herbicidal activity Monochoria vaginalis (Monochoria vaginalis): 5 (herbicidal effect of not less than 90% by weight) | Herbicidal activity Ammannia multiflora (Ammannia multiflora): 4 (herbicidal effect of not less than 70% by weight and less than 90% by weight) | Herbicidal activity Scirpus juncoides (Scirpus juncoides): 5 (herbicidal effect of not less than 90% by weight) | Herbicidal activity Chenopodium album (Chenopodium album [2]): 4 (herbicidal effect of not less than 70% by weight and less than 90% by weight) | Herbicidal activity Stellaria media (Stellaria media [3]): 4 (herbicidal effect of not less than 70% by weight and less than 90% by weight) | Herbicidal activity Digitaria adscendens (Digitaria adscendens [4]): 5 (herbicidal effect of not less than 90% by weight) | Herbicidal activity Setaria viridis (Setaria viridis [5]): 4 (herbicidal effect of not less than 70% by weight and less than 90% by weight) | Herbicidal activity Glycine max (soybean (Glycine max) [6]): 1 (herbicidal effect of not less than 10% by weight and less than 30% by weight) | Herbicidal activity Triticum aestivum [7]: 1 (herbicidal effect of not less than 10% by weight and less than 30% by weight) | Herbicidal activity Chenopodium album (Chenopodium album [8]): 5 (herbicidal effect of not less than 90% by weight) | Herbicidal activity Stellaria media (Stellaria media [9]): 5 (herbicidal effect of not less than 90% by weight) | Herbicidal activity Digitaria adscendens (Digitaria adscendens [10]): 5 (herbicidal effect of not less than 90% by weight) | Herbicidal activity Setaria viridis (Setaria viridis [11]): 5 (herbicidal effect of not less than 90% by weight) | Herbicidal activity Echinochloa spp. (Echinochloa spp.): 5 (herbicidal effect of not less than 90% by weight) | Herbicidal activity Glycine max (soybean (Glycine max) [12]): 0 (herbicidal effect of not less than 0% by weight and less than 10% by weight) | Herbicidal activity Triticum aestivum [13]: 0 (herbicidal effect of not less than 0% by weight and less than 10% by weight)

COC=C(Cn1nc(-c2ccccc2Cl)c(Cl)c1C)C(=O)OC [Compound 18]
Herbicidal activity Oryza sativa [1]: 1 (herbicidal effect of not less than 10% by weight and less than 30% by weight) | Herbicidal activity Monochoria vaginalis (Monochoria vaginalis): 5 (herbicidal effect of not less than 90% by weight) | Herbicidal activity Ammannia multiflora (Ammannia multiflora): 5 (herbicidal effect of not less than 90% by weight) | Herbicidal activity Scirpus juncoides (Scirpus juncoides): 5 (herbicidal effect of not less than 90% by weight) | Herbicidal activity Chenopodium album (Chenopodium album [2]): 5 (herbicidal effect of not less than 90% by weight) | Herbicidal activity Stellaria media (Stellaria media [3]): 5 (herbicidal effect of not less than 90% by weight) | Herbicidal activity Digitaria adscendens (Digitaria adscendens [4]): 5 (herbicidal effect of not less than 90% by weight) | Herbicidal activity Setaria viridis (Setaria viridis [5]): 4 (herbicidal effect of not less than 70% by weight and less than 90% by weight) | Herbicidal activity Glycine max (soybean (Glycine max) [6]): 0 (herbicidal effect of not less than 0% by weight and less than 10% by weight) | Herbicidal activity Triticum aestivum [7]: 0 (herbicidal effect of not less than 0% by weight and less than 10% by weight) | Herbicidal activity Chenopodium album (Chenopodium album [8]): 5 (herbicidal effect of not less than 90% by weight) | Herbicidal activity Stellaria media (Stellaria media [9]): 5 (herbicidal effect of not less than 90% by weight) | Herbicidal activity Digitaria adscendens (Digitaria adscendens [10]): 5 (herbicidal effect of not less than 90% by weight) | Herbicidal activity Setaria viridis (Setaria viridis [11]): 4 (herbicidal effect of not less than 70% by weight and less than 90% by weight) | Herbicidal activity Echinochloa spp. (Echinochloa spp.): 5 (herbicidal effect of not less than 90% by weight) | Herbicidal activity Glycine max (soybean (Glycine max) [12]): 0 (herbicidal effect of not less than 0% by weight and less than 10% by weight) | Herbicidal activity Triticum aestivum [13]: 0 (herbicidal effect of not less than 0% by weight and less than 10% by weight)
